Converted amounts (≈) assume the structure as drawn. The source made the active and inactive calls. No cut-off for these calls is given here.
Legend:
[1] = Solubility in FaSSIF at pH 6.5 irradiated ultrasonically for 10 mins and shaken for 2 hrs followed by centrifugation for 10 mins by HPLC-UV method; type: physicochemical
cells = details: Homo sapiens, HCT-116, 96 h
Description: Antiproliferative activity against human HCT116 cells incubated for 4 days by CCK8 assay

[2] = Intrinsic clearance in human liver microsomes at 1 uM in presence of NADPH incubated for 30 mins by LC/MS method; type: ADME; details: read-out: CLH
[3] = Antiproliferative activity against human SNU16 cells incubated for 4 days by CCK8 assay; type: functional, cell-based; details: SNU-16, 96 h
KG-1 = details: Homo sapiens
Description: Antitumor activity against FGFR1OP-FGFR1 fusion protein expressing human KG1 cells xenografted in mouse

MFE-280 = details: Homo sapiens
Description: Antitumor activity against FGFR2 S252W mutant expressing human MFE280 cells xenografted in mouse

[4] = Antitumor activity against human SNU16 cells xenografted in CAnN.Cg-Foxn1 (nu)/CrlCrlj nu/nu BALB nu/nu mouse assessed as tumor growth inhibition at 30 mg/kg, po qd for 11 days; type: functional; details: SNU-16, po, 264 h, read-out: TGI
UM-UC-14 = details: Homo sapiens
Description: Antitumor activity against FGFR3 S249C mutant expressing human UM-UC-14 cells xenografted in mouse

[5] = Antitumor activity against human SNU16 cells xenografted in CAnN.Cg-Foxn1 (nu)/CrlCrlj nu/nu BALB nu/nu mouse assessed as tumor growth inhibition at 100 mg/kg, po qd for 11 days; type: functional; details: SNU-16, po, 264 h, read-out: TGI
RT112/84 = details: Homo sapiens
Description: Antitumor activity against FGFR3-TACC3 mutant expressing human RT112/84 cells xenografted in mouse

SNU-16 = details: Homo sapiens
[6] = target: Vascular endothelial growth factor receptor 2 (Homo sapiens, UniProt P35968); experiment: Inhibition of human KDR by time-resolved fluorescence or time-resolved fluorescence assay
Vascular endothelial growth factor receptor 2, sequence (P35968 whole entry): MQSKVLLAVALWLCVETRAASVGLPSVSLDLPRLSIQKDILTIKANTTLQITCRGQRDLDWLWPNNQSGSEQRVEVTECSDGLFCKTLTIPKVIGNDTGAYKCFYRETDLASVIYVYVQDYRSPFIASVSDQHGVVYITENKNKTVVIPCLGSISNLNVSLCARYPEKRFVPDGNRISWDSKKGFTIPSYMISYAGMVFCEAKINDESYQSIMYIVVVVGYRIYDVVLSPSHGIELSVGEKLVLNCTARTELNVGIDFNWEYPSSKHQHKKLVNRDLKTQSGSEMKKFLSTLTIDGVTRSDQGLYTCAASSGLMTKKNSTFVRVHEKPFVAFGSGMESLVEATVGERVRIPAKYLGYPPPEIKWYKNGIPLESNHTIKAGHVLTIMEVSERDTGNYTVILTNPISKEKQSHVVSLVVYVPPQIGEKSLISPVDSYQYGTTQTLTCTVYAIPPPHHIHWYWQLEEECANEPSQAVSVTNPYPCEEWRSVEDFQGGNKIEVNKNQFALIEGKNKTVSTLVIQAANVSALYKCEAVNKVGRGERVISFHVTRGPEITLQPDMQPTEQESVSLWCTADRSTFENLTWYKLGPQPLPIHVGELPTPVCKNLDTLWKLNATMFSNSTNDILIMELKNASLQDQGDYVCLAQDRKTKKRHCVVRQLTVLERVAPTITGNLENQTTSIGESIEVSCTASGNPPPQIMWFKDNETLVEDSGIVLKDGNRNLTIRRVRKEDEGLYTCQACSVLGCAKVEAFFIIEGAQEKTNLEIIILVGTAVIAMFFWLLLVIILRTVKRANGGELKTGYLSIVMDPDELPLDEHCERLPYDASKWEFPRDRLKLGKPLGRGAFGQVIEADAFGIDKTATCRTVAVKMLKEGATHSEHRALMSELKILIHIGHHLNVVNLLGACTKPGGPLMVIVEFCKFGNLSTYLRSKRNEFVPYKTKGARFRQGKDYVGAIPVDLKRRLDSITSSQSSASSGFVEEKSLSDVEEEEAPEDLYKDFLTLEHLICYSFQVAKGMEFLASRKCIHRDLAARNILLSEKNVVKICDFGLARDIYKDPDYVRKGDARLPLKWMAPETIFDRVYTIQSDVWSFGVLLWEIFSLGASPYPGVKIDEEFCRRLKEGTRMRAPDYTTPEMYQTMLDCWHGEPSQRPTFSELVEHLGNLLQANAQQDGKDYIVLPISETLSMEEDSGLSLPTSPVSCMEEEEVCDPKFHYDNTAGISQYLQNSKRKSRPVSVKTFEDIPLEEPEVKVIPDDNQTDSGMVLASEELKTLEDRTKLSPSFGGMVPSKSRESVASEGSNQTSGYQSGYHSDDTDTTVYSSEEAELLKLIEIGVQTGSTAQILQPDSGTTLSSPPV

hERG (KCNH2) = hERG (KCNH2) (Homo sapiens, UniProt Q12809); experiment: Inhibition of human ERG expressed in CHO cells assessed as reduction in channel currents at 10 uM at -80 mV holding potential by automated whole-cell patch clamp method; details: CHO cells that express hERG
hERG (KCNH2), sequence (Q12809 whole entry): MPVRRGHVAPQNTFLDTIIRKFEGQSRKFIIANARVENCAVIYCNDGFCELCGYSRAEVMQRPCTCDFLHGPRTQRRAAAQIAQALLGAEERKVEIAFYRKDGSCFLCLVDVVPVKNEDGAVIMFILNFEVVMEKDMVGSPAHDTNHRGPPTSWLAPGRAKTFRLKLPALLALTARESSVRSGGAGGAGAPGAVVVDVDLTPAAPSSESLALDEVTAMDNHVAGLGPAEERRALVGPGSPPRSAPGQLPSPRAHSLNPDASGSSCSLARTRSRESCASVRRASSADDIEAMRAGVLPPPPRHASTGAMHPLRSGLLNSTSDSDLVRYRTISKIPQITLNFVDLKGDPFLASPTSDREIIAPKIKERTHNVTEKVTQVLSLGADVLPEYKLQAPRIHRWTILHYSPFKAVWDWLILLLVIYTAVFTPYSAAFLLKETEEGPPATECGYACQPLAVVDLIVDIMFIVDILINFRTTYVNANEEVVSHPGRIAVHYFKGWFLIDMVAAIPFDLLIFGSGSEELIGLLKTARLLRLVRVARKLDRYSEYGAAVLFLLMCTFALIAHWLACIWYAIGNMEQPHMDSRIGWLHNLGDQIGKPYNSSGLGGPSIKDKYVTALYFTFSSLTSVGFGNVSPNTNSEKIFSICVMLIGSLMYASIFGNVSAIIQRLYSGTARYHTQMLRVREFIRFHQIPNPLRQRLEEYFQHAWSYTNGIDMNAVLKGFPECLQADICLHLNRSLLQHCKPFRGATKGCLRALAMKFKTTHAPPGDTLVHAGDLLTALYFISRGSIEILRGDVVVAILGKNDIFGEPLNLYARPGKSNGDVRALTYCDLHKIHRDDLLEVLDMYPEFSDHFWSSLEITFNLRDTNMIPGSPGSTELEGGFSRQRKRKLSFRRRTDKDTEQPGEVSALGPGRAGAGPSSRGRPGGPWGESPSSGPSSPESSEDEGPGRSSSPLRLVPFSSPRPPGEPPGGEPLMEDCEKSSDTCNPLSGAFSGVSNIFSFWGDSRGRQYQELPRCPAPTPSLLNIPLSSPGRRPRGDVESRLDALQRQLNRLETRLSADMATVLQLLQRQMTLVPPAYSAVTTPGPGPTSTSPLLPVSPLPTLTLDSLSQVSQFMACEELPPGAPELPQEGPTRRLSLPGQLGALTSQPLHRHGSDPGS

[7] = target: Voltage-gated inwardly rectifying potassium channel KCNH2 (Homo sapiens, UniProt Q12809); experiment: Inhibition of human ERG expressed in CHO cells assessed as reduction in channel currents at -80 mV holding potential by automated whole-cell patch clamp method
Voltage-gated inwardly rectifying potassium channel KCNH2, sequence (Q12809 whole entry): as above

[8] = Oral bioavailability cynomolgus monkey at 1 mg/kg by LC-MS/MS method; type: ADME, organism-based, Macaca fascicularis; details: in vivo
[9] = target: Proto-oncogene tyrosine-protein kinase Src (Homo sapiens, UniProt P12931); experiment: Inhibition of human SRC by time-resolved fluorescence or time-resolved fluorescence assay
Proto-oncogene tyrosine-protein kinase Src, sequence (P12931 2-536 limits assumed): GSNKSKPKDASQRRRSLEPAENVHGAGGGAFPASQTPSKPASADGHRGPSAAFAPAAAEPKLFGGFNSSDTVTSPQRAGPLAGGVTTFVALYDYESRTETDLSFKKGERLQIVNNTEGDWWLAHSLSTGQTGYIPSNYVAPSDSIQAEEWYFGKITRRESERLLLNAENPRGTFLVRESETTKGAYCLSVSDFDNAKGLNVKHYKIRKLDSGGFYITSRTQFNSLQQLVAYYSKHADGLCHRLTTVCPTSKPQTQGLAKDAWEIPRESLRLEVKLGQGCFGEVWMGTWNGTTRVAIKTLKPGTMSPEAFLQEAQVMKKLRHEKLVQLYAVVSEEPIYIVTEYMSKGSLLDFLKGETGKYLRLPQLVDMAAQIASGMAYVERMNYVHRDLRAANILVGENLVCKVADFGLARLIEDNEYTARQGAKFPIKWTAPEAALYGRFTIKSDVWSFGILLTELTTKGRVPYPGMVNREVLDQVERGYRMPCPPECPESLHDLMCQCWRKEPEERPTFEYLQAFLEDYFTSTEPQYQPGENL

[10] = target: Fibroblast growth factor receptor 1 (Homo sapiens, UniProt P11362)
Description: Inhibition of human FGFR1 by time-resolved fluorescence or time-resolved fluorescence assay

[11] = target: Fibroblast growth factor receptor 3 (Homo sapiens, UniProt P22607)
Description: Inhibition of human FGFR3 by time-resolved fluorescence or time-resolved fluorescence assay

[12] = target: Fibroblast growth factor receptor 4 (Homo sapiens, UniProt P22455); experiment: Inhibition of human FGFR4 by time-resolved fluorescence or time-resolved fluorescence assay
Fibroblast growth factor receptor 4, sequence (P22455 whole entry): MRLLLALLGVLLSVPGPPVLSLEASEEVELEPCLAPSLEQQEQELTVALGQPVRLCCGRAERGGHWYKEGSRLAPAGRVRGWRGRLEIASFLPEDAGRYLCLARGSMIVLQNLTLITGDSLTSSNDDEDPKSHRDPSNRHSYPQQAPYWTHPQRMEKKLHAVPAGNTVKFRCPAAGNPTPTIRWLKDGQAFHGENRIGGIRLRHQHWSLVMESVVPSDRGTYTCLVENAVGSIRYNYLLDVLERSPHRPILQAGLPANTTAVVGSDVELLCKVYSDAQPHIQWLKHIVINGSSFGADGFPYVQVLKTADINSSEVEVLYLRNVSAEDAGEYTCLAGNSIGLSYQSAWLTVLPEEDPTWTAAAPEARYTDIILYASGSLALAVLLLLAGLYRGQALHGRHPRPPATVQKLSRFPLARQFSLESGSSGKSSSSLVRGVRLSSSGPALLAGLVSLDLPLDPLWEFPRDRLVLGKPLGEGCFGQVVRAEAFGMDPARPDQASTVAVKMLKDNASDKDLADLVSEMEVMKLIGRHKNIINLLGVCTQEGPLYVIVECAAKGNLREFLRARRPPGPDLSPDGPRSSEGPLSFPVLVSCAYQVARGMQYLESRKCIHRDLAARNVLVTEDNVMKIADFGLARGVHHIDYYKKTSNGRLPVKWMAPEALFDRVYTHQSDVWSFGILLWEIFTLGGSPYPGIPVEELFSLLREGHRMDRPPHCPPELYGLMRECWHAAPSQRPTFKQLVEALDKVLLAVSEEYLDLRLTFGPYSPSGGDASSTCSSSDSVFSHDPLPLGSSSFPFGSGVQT

Mus musculus = experiment: Toxicity in human SNU16 cells xenografted CAnN.Cg-Foxn1 (nu)/CrlCrlj nu/nu BALB nu/nu mouse assessed as induction of body weight loss at 30 and 100 mg/kg, po qd for 11 days; type: organism-based, SNU-16; details: in vivo, 264 h
Rattus norvegicus [13] = species: Rattus norvegicus; experiment: Cardiotoxicity in rat assessed as effect on blood pressure; type: toxicity, organism-based
Rattus norvegicus [14] = experiment: Cardiotoxicity in telemetry instrumented rat assessed as effect on blood pressure at 30 mg/kg; type: toxicity, organism-based; details: in vivo
[15] = Cardiotoxicity in monkey assessed as effect on blood pressure; type: toxicity, Macaca mulatta; details: rhesus monkey
[16] = AUC in rat at 30 mg/kg; type: ADME, organism-based; details: in vivo
[17] = Cardiotoxicity in Langendorff's isolated guinea pig heart perfusion model in assessed as induction of QTc prolongation; type: toxicity, tissue-based, Cavia porcellus
[18] = Permeability from apical to basolateral side in human Caco2 cells at 10 uM incubated for 120 mins by LC-MS/MS method; type: ADME, cell-based; details: Caco-2, read-out: permeability

Cc1cc2cc(-n3ncc(C(=O)c4cc5ccccc5[nH]4)c3N)ccc2[nH]1
solubility at 2 h [1]: 10 µg/mL (≈ 28.1 µM)
IC50 (cells): 5300 nM
microsomal CLint at 1 µM [2]: 10 µL/min/mg
IC50 [3]: 53 nM

Cc1nc2ccc(-n3ncc(C(=O)c4cc5ccccc5[nH]4)c3N)cc2[nH]1 [FGFR INHIBITOR DEBIO 1347]
TGI (KG-1): Active
TGI (MFE-280): Active
IC50 (cells): 5900 nM
inhibition in vivo at 30 mg/kg [4]: 106%
TGI (UM-UC-14): Active
inhibition in vivo at 100 mg/kg [5]: 147%
IC50 [3]: 17 nM
TGI (RT112/84): Active
AUC (SNU-16): 26000 ng·h/mL

Nc1c(C(=O)c2cc3ccccc3[nH]2)cnn1-c1ccc2[nH]ccc2c1
solubility at 2 h [1]: 4 µg/mL (≈ 11.7 µM)
IC50 (cells): 470 nM
microsomal CLint at 1 µM [2]: 4.4 µL/min/mg
IC50 [3]: 190 nM

Cc1nc2cc(-n3ncc(C(=O)c4cc5ccc(CN6CCC(F)(F)CC6)cc5[nH]4)c3N)ccc2[nH]1
IC50 [6]: 280 nM
inhibition at 10 µM (hERG (KCNH2)): 58%
microsomal CLint at 1 µM [2]: 14 µL/min/mg
IC50 [7]: 8600 nM
IC50 [3]: 6 nM
bioavailability [8]: 5%

Nc1c(C(=O)c2cc3ccccc3[nH]2)cnn1-c1ccccc1Cl
IC50 [6]: 410 nM
IC50 (cells): 2700 nM
IC50 [3]: 2900 nM

Nc1c(C(=O)c2cc3ccccc3[nH]2)cnn1-c1ccc2nc[nH]c2c1
IC50 [6]: 340 nM
solubility at 2 h [1]: 37 µg/mL (≈ 108 µM)
IC50 (cells): 17000 nM
microsomal CLint at 1 µM [2]: 4.2 µL/min/mg
IC50 [3]: 380 nM

Cc1ccc2cc(C(=O)c3cnn(-c4ccc5nc(C)[nH]c5c4)c3N)[nH]c2c1
IC50 [6]: 370 nM
IC50 (cells): 9700 nM
inhibition at 10 µM (hERG (KCNH2)): 64%
microsomal CLint at 1 µM [2]: 140 µL/min/mg
IC50 [7]: 6900 nM

CCc1nc2cc(-n3ncc(C(=O)c4cc5ccccc5[nH]4)c3N)ccc2[nH]1
IC50 [6]: 1700 nM
solubility at 2 h [1]: 42 µg/mL (≈ 113 µM)
IC50 (cells): 1500 nM
microsomal CLint at 1 µM [2]: 23 µL/min/mg
IC50 [3]: 77 nM

Nc1c(C(=O)c2cc3ccccc3o2)cnn1-c1cc(O)ccc1Cl
IC50 [6]: 170 nM
IC50 (cells): 8200 nM
IC50 [3]: 3300 nM

Cc1nc2cc(-n3ncc(C(=O)c4cc5ccc(-c6ccccc6)cc5[nH]4)c3N)ccc2[nH]1
IC50 [6]: 3400 nM
IC50 [9]: > 50000 nM
inhibition at 10 µM (hERG (KCNH2)): 15%
microsomal CLint at 1 µM [2]: 3.2 µL/min/mg
IC50 [7]: > 10000 nM
IC50 [3]: 84 nM
bioavailability [8]: 3%

Cc1nc2cc(-n3ncc(C(=O)c4cc5ccc(S(C)(=O)=O)cc5[nH]4)c3N)ccc2[nH]1
IC50 [6]: 1000 nM
IC50 (cells): 37000 nM
microsomal CLint at 1 µM [2]: 5.4 µL/min/mg
IC50 [3]: 82 nM

Nc1c(C(=O)c2ccc3ncccc3c2)cnn1-c1cc(O)ccc1Cl
IC50 [6]: 1600 nM
IC50 (cells): 9300 nM
IC50 [3]: 8900 nM

Nc1c(C(=O)c2cc3ccccc3[nH]2)cnn1-c1cc(O)ccc1Cl
IC50 [6]: 28 nM
solubility at 2 h [1]: 20 µg/mL (≈ 56.7 µM)
IC50 (cells): 2600 nM
microsomal CLint at 1 µM [2]: 15 µL/min/mg
IC50 [3]: 360 nM

Cc1cccc(C(=O)c2cnn(-c3cc(O)ccc3Cl)c2N)c1
IC50 [6]: 2900 nM
IC50 (cells): > 20000 nM
IC50 [3]: 15000 nM

Cc1nc2cc(-n3ncc(C(=O)c4cc5ccc(CN6CCOCC6)cc5[nH]4)c3N)ccc2[nH]1
IC50 [6]: 120 nM
inhibition at 10 µM (hERG (KCNH2)): 15%
microsomal CLint at 1 µM [2]: 9.6 µL/min/mg
IC50 [7]: > 10000 nM
IC50 [3]: 2.6 nM
bioavailability [8]: 0%

Nc1c(C(=O)c2cc3ccccc3[nH]2)cnn1-c1ccc2[nH]c(=O)[nH]c2c1
IC50 [10]: > 50000 nM
IC50 [6]: 2700 nM
IC50 [11]: > 50000 nM
IC50 [12]: > 50000 nM

Cc1nc2cc(-n3ncc(C(=O)c4cc5ccccc5[nH]4)c3N)ccc2[nH]1 [FGFR INHIBITOR DEBIO 1347]
IC50 [6]: 2100 nM
Activity (Mus musculus): Non-Toxic
IC50 [9]: 5900 nM
solubility at 2 h [1]: 29 µg/mL (≈ 81.4 µM)
Activity (Rattus norvegicus [13]): Non-Toxic
IC50 [12]: 290 nM
inhibition at 10 µM (hERG (KCNH2)): 69%
Activity (Rattus norvegicus [14]): Non-Toxic
Activity [15]: Non-Toxic
AUC [16]: 102 µg·h/mL
microsomal CLint at 1 µM [2]: 13 µL/min/mg
IC50 [7]: 6900 nM
Activity [17]: Non-Toxic
bioavailability [8]: 30%

Nc1c(C(=O)c2cc3cc(CN4CCOCC4)ccc3[nH]2)cnn1-c1cc(O)ccc1Cl
IC50 [6]: 2.4 nM
solubility at 2 h [1]: 40 µg/mL (≈ 88.5 µM)
IC50 (cells): 3600 nM
microsomal CLint at 1 µM [2]: 20 µL/min/mg
IC50 [3]: 550 nM

Cc1nc2cc(-n3ncc(C(=O)c4cc5ccc(Br)cc5[nH]4)c3N)ccc2[nH]1
IC50 [6]: 290 nM
IC50 [9]: > 50000 nM
IC50 (cells): 11000 nM
inhibition at 10 µM (hERG (KCNH2)): 31%
microsomal CLint at 1 µM [2]: 4.2 µL/min/mg
IC50 [7]: > 10000 nM
IC50 [3]: 52 nM
Papp A→B at 2 h, 10 µM [18]: 2.2 ×10⁻⁶ cm/s
bioavailability [8]: 20%

Cc1nc2ccc(-n3ncc(C(=O)c4cc5cc(CN6CCOCC6)ccc5[nH]4)c3N)cc2[nH]1
IC50 [6]: 210 nM
IC50 (cells): 8900 nM
inhibition at 10 µM (hERG (KCNH2)): 7%
microsomal CLint at 1 µM [2]: 15 µL/min/mg
IC50 [7]: > 10000 nM
IC50 [3]: 17 nM

— ChEMBL document CHEMBL3860107, “Discovery of [5-Amino-1-(2-methyl-3H-benzimidazol-5-yl)pyrazol-4-yl]-(1H-indol-2-yl)methanone (CH5183284/Debio 1347), An Orally Available and Selective Fibroblast Growth Factor Receptor (FGFR) Inhibitor” (J Med Chem, 2016)
